Data on one compound can be found in patent US20170087108A1, “METHODS OF IMPROVING PHYSIOLOGICAL CONDITIONS RELATED TO PREGNANCY THROUGH DIETARY SUPPLEMENTATION” (Natural Alternatives International, Inc., priority 2015, published 2017).

Series [1] deals with pigs. The series is described as follows: Dietary supplementation of female pigs: survivability and live births per litter. Format: in vivo. The conditions noted are these: vs no supplementation and vs carnosine. The source says: Beta-alanine will be used as a dietary supplement for pigs.
Beta-alanine supplementation will be provided to female pigs during pregnancy. Beta-alanine will be provided in dosages provided in concentrations and/or percentages for times described in this disclosure. Controls will be provided. Controls will include a group of female pigs given no additional supplementation beyond those currently administered during pig pregnancies. Another control group will be provided with supplementation with carnosine at dosages provided in concentrations and/or percentages for times described in this disclosure.
Beta-alanine supplementation will be provided to female pigs prior to and during pregnancy. Beta-alanine will be provided in dosages provided in concentrations and/or percentages for times described in this disclosure. Controls will be provided. Controls will include a group of female pigs given no additional supplementation beyond those currently administered during pig pregnancies. Another control group will be provided with supplementation with carnosine at dosages provided in concentrations and/or percentages for times described in this disclosure.
Beta-alanine supplementation will be provided to female pigs starting from breeding age through pregnancy. Beta-alanine will be provided in dosages provided in concentrations and/or percentages for times described in this disclosure. Controls will be provided. Controls will include a group of female pigs given no additional supplementation beyond those currently administered during pig pregnancies. Another control group will be provided with supplementation with carnosine at dosages provided in concentrations and/or percentages for times described in this disclosure.
Beta-alanine supplementation will be provided to female pigs from birth through pregnancy. Beta-alanine will be provided in dosages provided in concentrations and/or percentages for times described in this disclosure. Controls will be provided. Controls will include a group of female pigs given no additional supplementation beyond those currently administered during pig pregnancies. Another control group will be provided with supplementation with carnosine at dosages provided in concentrations and/or percentages for times described in this disclosure.

The test system of the next series is chickens. Particulars: Example 2: supplementation of female chickens during pregnancy; vs no supplementation and vs carnosine. The source says:
(§1) Beta-alanine will be used as a dietary supplement for pigs and chickens.
(§2) Beta-alanine supplementation will be provided to female pigs and female chickens during pregnancy. Beta-alanine will be provided in dosages provided in concentrations and/or percentages for times described in this disclosure. Controls will be provided. Controls will include a group of female pigs and female chickens given no additional supplementation beyond those currently administered during pig and chicken pregnancies. Another control group will be provided with supplementation with carnosine provided in dosages provided in concentrations and/or percentages for times described in this disclosure.

Series [2] relates to pigs. The conditions noted are these: Example 2: supplementation of female pigs during pregnancy; vs no supplementation and vs carnosine.
Description: as §1, §2

The conditions of series [3]: taken as a free amino acid; some individuals; cited from earlier work.
Where [4] appears, read: Example 1: supplementation during pregnancy.
Where [5] appears, read: Example 3: supplementation prior to and during pregnancy.
[6] abbreviates: Example 4: supplementation from breeding age through pregnancy.
The mark [7] stands for this setting: Example 5: supplementation from birth through pregnancy.

As for `NCCC(=O)O` [beta-alanine], the “amount of live births per litter” value in the series with pigs [1] (setting [4]), in the series with pigs [1] (setting [5]), with pigs [1] (setting [6]) and with pigs [1] (setting [7]) was “improves” each time. For the same compound, the survivability result with pigs [1] (setting [4]), with pigs [1] (setting [5]), with pigs [1] (setting [6]) and with pigs [1] (setting [7]) was “improves” each time. Moreover, the “early development rate for chicks” value with chickens is recorded as “improves”. Besides, in the series on pigs [2], the “early development rate for piglets” value is “improves”. For the same compound, the “duration of flushing/tingling of the skin” value in series [3] is “less than 60 minutes”.
